Reference: patent publication US11072587B2, “Administration of aurora kinase inhibitors for anti-malarial therapy” (University of Central Florida Research Foundation, Inc., priority 2017, dated 2021)

Key:
PfArk2 = assay: γ-P32 ATP utilization kinase assay with MBP as substrate; format: biochemical, Plasmodium falciparum; settings: GST-tagged PfArk2 2.5 μg, MBP 2.5 μg, autoradiogram (FIG. 17B)
Protocol: GST-tagged PfArk2 was purified using affinity chromatography (FIG. 17A). Compounds were added to a standard kinase assay at indicated concentrations against PfArk-2 (2.5 μg) in a γ-P^32 ATP utilization assay with MBP (2.5 μg) as substrate (FIG. 17B). Upper panels show Coomassie Blue-stained gel and the lower panel is the corresponding autoradiogram.

[1] = system: chloroquine-resistant P. falciparum Dd2; assay: SYBR Green I-based fluorescence assay, intraerythrocytic growth inhibition; format: cell-based, Plasmodium falciparum; settings: for IC50 / IC90: P. falciparum Dd2, 72 h
Protocol: Ten millimolar compound stocks in DMSO were diluted by ½, ⅕, and/or 1/10 fold dilutions in ultrapure water or RPMI 1640. Varying concentrations of compound were added to culture at a 1% parasitemia and 2% hematocrit in 96-well black plates. Assay conditions maintained maximum DMSO concentrations less than 0.125% per dilution. Positive (baseline 0% growth) controls consisted of Chloroquine at 1 μM final concentration. Following 72 h incubation at 37° C. in 5% CO2, dilution plates were frozen at −80° C. for a minimum of 30 minutes. Dilution plates were allowed to thaw followed by lysis treatment and SYBR Green I incorporation. DNA quantification was determined using a fluorescence reading on a Synergy H4 multimode plate reader set at 485 nm excitation and 530 nm emission as previously reported (Roberts, Iyamu et al. 2016). EC50 was calculated from a dose response curve that was generated from a concentration range of 0-10 μM using GraphPad Prism v5.0.
Different dilutions of the compound/fraction in 1 μl of the culture medium were added to 99 μl of P. falciparum culture at a 1% parasitemia and 2% hematocrit in 96-well plates. Maximum DMSO concentration in the culture never exceeded 0.125%. Chloroquine at 1 μM was used as a positive control to determine the baseline value. Following 72 hours incubation at 37° C., the plates were frozen at −80° C. After thawing, 100 μL of lysis buffer (with SYBR Green I dye 1:10,000) was added to each well and plates were incubated at room temperature for 30 minutes prior to reading.
80 compounds were screened for their ability to inhibit the intraerythrocytic growth of chloroquine-resistant P. falciparum Dd2 using a SYBR Green I-based fluorescence assay at 1 μM.
(§1) 7 hit compounds and 17 mammalian Aurora A and B inhibitors in clinical trial were screened by SYBR Green I-based fluorescence assay to determine IC50 values in chloroquine-resistant P. falciparum Dd2 and the cytotoxicity was evaluated in 3T3 Mouse fibroblast cells using MTS cytotoxicity assay. The results of the top 2 ASINEX library compounds and 3 commercially available mammalian Aurora A and B inhibitors are shown in Table 1 below with noted structures provided in FIG. 16.

[2] = system: 3T3 Mouse fibroblast cells; assay: MTS cytotoxicity assay; format: cell-based; settings: for Selectivity Index: 3T3 EC50 versus Dd2 IC50; for EC50 / EC90: cytotoxicity, 3T3 mouse fibroblast cells
Protocol: The intraerythrocytic development of the malaria parasite diverges from the paradigm of eukaryotic cell cycle. Novelty of the Plasmodium cell cycle offers opportunities for development of therapeutics directed against essential components. […] Essential Plasmodium Aurora-related kinases (Arks) 1, 2, and 3 are homologous to Aurora A and B, Ser/Thr kinases involved in cell division. […] To discover potent and selective small molecule inhibitors of PfArks, screening was conducted of a library of optimized mammalian Aurora kinase inhibitors that have evolved from a general pharmacophore models for Ser/Thr kinases. In addition, we are also repurposing human Aurora kinase inhibitors to discover antimalarial lead compounds. Novel potent inhibitors (EC50<1 μM) were identified in cell-based screening using SYBR Green I fluorescence based assay. Selectivity of the hits against mammalian cells were determined using the MTS ((3-(4,5 dimethylthiazol-2-yl)-5-(3-carboxymethoxyphenyl)-2-(4-sulfophenyl)-2H-tetrazolium, inner salt) cell proliferation assay. Results from our studies to assess structure-activity-relationship, specificity of inhibition, and cellular effects of the compounds will be presented.
as §1

[3] = P. falciparum Dd2, compound at 1 μM, 72 h

Compound: CCn1cc(-c2ccnc3[nH]c(-c4cccc(CN(C)C)c4)cc23)c(-c2ccc(NC(=O)N(C)C)cc2)n1 [DC-0005154, GSK-1070916]
- Inhibition of PfArk2 activity (PfArk2): not particularly effective in inhibiting PfArk2 activity
- IC50 ([1]; Plasmodium falciparum): 441 nM
- IC90 ([1]; Plasmodium falciparum): 1720 nM
- inhibition at 1 µM ([1]; Plasmodium falciparum, P. falciparum Dd2, compound at 1 μM, 72 h): 87%
- Selectivity Index [2]: 13.5
- EC50 [2]: 5970 nM
- EC90 [2]: 15900 nM

Compound: BI-847325 [DC-0005156]
- IC50 [1]: 530 nM
- IC90 [1]: 2000 nM
- % inhibition (1 μM) [1, 3]: 93%
- Selectivity Index [2]: 2.5
- EC50 [2]: 1310 nM
- EC90 [2]: > 26700 nM

Compound: COc1cc2c(Nc3ccc(NC(=O)c4ccccc4)cc3)ncnc2cc1OCCCN1CCOCC1 [DC-0005146, ZM-447439]
- Inhibition of PfArk2 activity (PfArk2): not particularly effective in inhibiting PfArk2 activity
- IC50 [1]: 1020 nM
- IC90 [1]: 4320 nM
- % inhibition (1 μM) [1, 3]: 75%
- Selectivity Index [2]: 3.7
- EC50 [2]: 3780 nM
- EC90 [2]: 11700 nM
